In one assay the target is T1, p53(Y220C) (Homo sapiens, UniProt P04637, Y220C).
T1 construct: His-p53 Y220C (94-294) protein
Briefly: In vitro DNA binding assay (HTRF), His-p53 Y220C (94-294) with biotinylated p53 consensus DNA. In kind it is biochemical. The conditions noted are these: HTRF; 27 °C; His-p53 Y220C (94-294) 2.5 nM; biotinylated DNA 10 nM; normalized to 2 μM Ref-1a; EC50 = concentration at 50% Activation; read-out: p53(Y220C) EC50. How it is done: After His-p53 Y220C (94-294) protein was placed with a compound in the present of MAb Anti His-Tb cryptate (Cisbio, Cat. NO. 61HI2TLA) in a 384 well microplate (Greiner) for 15 min at 25 °C, the assay plate was transferred into 27 °C incubator and incubated for 60 min. Biotinalyted p53 consensus DNA (ID: p53-SEQUENCE 2 —F: 5′(biotin)-[…] 3′ —R: 5′ […] 3′) was added into the assay plate in the present of Streptaidin-d2 (Cisbio, Cat. NO. 610SADLF) cryptate (Final concentration: 20 mM HEPES pH=7.4, 75 mM KCl, 1 mM MgCl2, 0.1% (w/v) BSA, 1 mM DTT, 2.5 nM His-P53 Y220C (94-294) protein, 0.33 nM MAb Anti His-Tb cryptate, 2.5 nM Streptaidin-d2 cryptate, 10 nM Biotinalyted DNA) and incubated for another 60 min. Wells containing 2 μM reference compound Ref-1a served as high control, and wells containing same percentage of DMSO served as low control. Homogeneous time-resolved fluorescence (HTRF) signals were read on Tecan Spark multimode microplate reader. HTRF ratios for each individual well were calculated by equation: HTRF ratio=(Signal F665/Signal F620)*1000. The percent of activation of compounds treated wells were normalized between high control and low control (% Activation=(HTRF ratiocompound treated−HTRF ratiolow control)/(HTRF ratiohigh control−HTRF ratiolow control)*100%). Then the data were analyzed either by fitting a 4-parameter logistic model or by Excel to calculate EC50 values. And the EC50 was the concentration at 50% Activation on the curve.
(In TR-FRET formats the signal depends on donor and acceptor labels being close together.)

Another assay concerns the target p53(Y220C)_NUGC-3 (Homo sapiens, UniProt P04637, Y220C). Briefly: Reporter gene assay (NUGC-3_P53_Luc cells). In kind it is cell-based. Conditions: 6 hours, 37 °C, luciferase, normalized to Ref-1a 10 μM, EC50 = concentration at 50% Activity, read-out: p53(Y220C)_NUGC-3 EC50. As for the experimental part: NUGC-3_P53_Luc single clonal cell line was established using pGL4.38[luc2P/p53 RE/Hygro] Vector (E365A, promega). NUGC-3_P53_Luc single clonal cells were cultured in 37 °C cell incubator before use. NUGC-3_P53_Luc cells were collected and washed twice with PBS to remove phenol red and then resuspended in medium to a proper concentration. Tested compound dilutions were transferred into 384 well assay plates (PerkinElmer). A desired number of cells was seeded into the assay plate and cultured for 6 hours at 37 °C cell incubator. Britelite plus Luciferase Assay Reagent were added into each well and the luminescence value was recorded on Envision. The percent of activity value of compounds treated wells was normalized between high control and low control. Wells containing cells and Ref-la (10 μM) served as high control, and wells containing cells and same percentage of DMSO served as low control. Activity value (%)=(Luminescence readoutCompound treated−Luminescence readoutLow control)/(Luminescence readoutHigh control−Luminescence readoutLow control)*100%. Then the data were analyzed either by fitting a 4-parameter logistic model or by Excel to calculate EC50 values and the EC50 was the concentration at 50% Activity on the curve.

Another assay concerns NUGC-3 (P53 Y220C). The experiment in a line: Cell viability assay (CellTiter-Glo). In kind it is cell-based. The conditions noted are these: Homo sapiens, 144 h, NUGC-3 cells, 6 days, 37 °C. How it is done: Cells were collected and counted. A desired number of cells was seeded into 96-well microplate and cultured in 37 °C cell incubator overnight. Compounds dissolved in cell culture medium were added into cell plate and cultured for 6 days. After balancing CellTiter-Glo reagent and cells at room temperature for 30 min, equal volume of CellTiter-Glo reagents was added to assay plate and shaken for 2 min for cell lysis. The cells were balanced at room temperature for 10 minutes and Luminescence signal was read using Envision. The percent of cell viability for compounds treated wells were normalized between High control and low control. Wells containing cell culture medium and same percentage DMSO served as Low control. Wells containing cells and same percentage DMSO served as High control. Cell viability (%)=(Luminescence readoutCompound treated−Luminescence readoutLow control)/(Luminescence readoutHigh control−Luminescence readoutLow control)*100%. Then the data were analyzed either by fitting a 4-parameter logistic model or by Excel to calculate IC50 values. And the IC50 was the concentration at […] Cell viability on the curve.
(In general: ATP-based viability assays read luminescence as a measure of living cells.)

With `COc1cc(P(C)(C)=O)ccc1NCC#Cc1sc2c(N[C@@H]3CC[N@@+](C)([O-])C[C@@H]3F)cccc2c1CC(F)(F)F` (single isomer, unassigned) [Example 7], the EC50 stood at 81 nM on p53(Y220C) and 3940 nM on p53(Y220C)_NUGC-3.
In the same order, the values of `COc1cc([S@](C)(=N)=O)ccc1NCC#Cc1sc2c(N[C@@H]3CC[N@+](C)([O-])C[C@@H]3F)cccc2c1CC(F)(F)F` (single isomer, unassigned) [Example 8] are 38 nM and 7230 nM.
Turning to `COc1cc([S@](C)(=N)=O)ccc1NCC#Cc1sc2c(N[C@@H]3CC[N@@+](C)([O-])C[C@@H]3F)cccc2c1CC(F)(F)F` (single isomer, unassigned) [Example 9], the figures for the EC50 on p53(Y220C) and at p53(Y220C)_NUGC-3 were 62 nM and 1900 nM, respectively.
In the same order, the values of `COc1cc(P(C)(C)=O)ccc1NCC#Cc1sc2c(N[C@@H]3CC[N@+](C)([O-])C[C@@H]3F)cccc2c1CC(F)(F)F` (single isomer, unassigned) [Example 10] are 53 nM and 11100 nM.
In the case of `CN1CC[C@@H](Nc2cccc3c(CC(F)(F)F)c(C#CCNc4ccc(P(C)(C)=O)c5ccoc45)sc23)[C@@H](F)C1` [Example 2, (7-((3-(7-(((3S,4R)-3-fluoro-1-methylpiperidin-4-yl)amino)-3-(2,2,2-trifluoroethyl)benzo[b]thiophen-2-yl)prop-2-yn-1-yl)amino)benzofuran-4-yl)dimethylphosphine oxide], at p53(Y220C)_NUGC-3, the EC50 was 196 nM.
Take `CN1CC[C@@H](Nc2cccc3c(CC(F)(F)F)c(C#CCNc4ccc(P(C)(C)=O)cc4-c4cc[nH]n4)sc23)[C@@H](F)C1` [Example 3, (4-((3-(7-(((3S,4R)-3-fluoro-1-methylpiperidin-4-yl)amino)-3-(2,2,2-trifluoroethyl)benzo[b]thiophen-2-yl)prop-2-yn-1-yl)amino)-3-(1H-pyrazol-3-yl)phenyl)dimethylphosphine oxide]: the 50% inhibitory concentration (IC50) in the assay on NUGC-3 (P53 Y220C) amounted to 1400 nM. Also, the EC50 on p53(Y220C)_NUGC-3 turned out to be 55 nM.
For the molecule `COc1cc(P(C)(C)=O)ccc1NCC#Cc1sc2c(NC3CN(C)CC3F)cccc2c1CC(F)(F)F` (stereo not drawn) [Example 13, (4-((3-(7-((4-fluoro-1-methylpyrrolidin-3-yl)amino)-3-(2,2,2-trifluoroethyl)benzo[b]thiophen-2-yl)prop-2-yn-1-yl)amino)-3-methoxyphenyl)dimethylphosphine oxide], the EC50 was 104 nM at p53(Y220C) and 138 nM on p53(Y220C)_NUGC-3. Also, in the assay with NUGC-3 (P53 Y220C), the IC50 was found to be 1390 nM.
In the same order, the values of `COc1cc(S(=N)(=O)C2CCOCC2)ccc1NCC#Cc1sc2c(NC3CCN(C)CC3F)cccc2c1CC(F)(F)F` [Example 24, (S)-(4-((3-(7-(((3S,4R)-3-fluoro-1-methylpiperidin-4-yl)amino)-3-(2,2,2-trifluoroethyl)benzo[b]thiophen-2-yl)prop-2-yn-1-yl)amino)-3-methoxyphenyl)(imino)(tetrahydro-2H-pyran-4-yl)-16-sulfanone] are 68 nM, 119 nM and 900 nM.
The matching figures for `COc1cc([S@](=N)(=O)C(C)C)ccc1NCC#Cc1sc2c(N[C@@H]3CCN(C)C[C@@H]3F)cccc2c1CC(F)(F)F` [Example 26, (R)-(4-((3-(7-(((3S,4R)-3-fluoro-1-methylpiperidin-4-yl)amino)-3-(2,2,2-trifluoroethyl)benzo[b]thiophen-2-yl)prop-2-yn-1-yl)amino)-3-methoxyphenyl)(imino)(isopropyl)-16-sulfanone]: 70 nM, 208 nM and 1840 nM.
Take `COc1cc(P(C)(C)=O)ccc1NCC#Cc1sc2c(N[C@@H]3CCCN(C)C3)cccc2c1CC(F)(F)F` [Example 28, (R)-(3-methoxy-4-((3-(7-((1-methylpiperidin-3-yl)amino)-3-(2,2,2-trifluoroethyl)benzo[b]thiophen-2-yl)prop-2-yn-1-yl)amino)phenyl)dimethylphosphine oxide]: the EC50 was 77 nM at p53(Y220C) and 244 nM at p53(Y220C)_NUGC-3. The molecule also had an IC50 in the assay on NUGC-3 (P53 Y220C) of 1550 nM.
The matching figures for `COc1cc(P(C)(C)=O)ccc1NCC#Cc1sc2c(N[C@@H]3CCN(C)C[C@@H]3F)cccc2c1[C@H](O)C(F)(F)F` [Example 31, (4-((3-(7-(((3S,4R)-3-fluoro-1-methylpiperidin-4-yl)amino)-3-((S)-2,2,2-trifluoro-1-hydroxyethyl)benzo[b]thiophen-2-yl)prop-2-yn-1-yl)amino)-3-methoxyphenyl)dimethylphosphine oxide]: 29 nM, 126 nM and 870 nM.
In the same order, the values of `COc1cc(P(C)(C)=O)ccc1NCC#Cc1sc2c(N[C@@H]3CCN(C)C[C@@H]3F)cccc2c1[C@@H](O)C(F)(F)F` [Example 33, (4-((3-(7-(((3S,4R)-3-fluoro-1-methylpiperidin-4-yl)amino)-3-((R)-2,2,2-trifluoro-1-hydroxyethyl)benzo[b]thiophen-2-yl)prop-2-yn-1-yl)amino)-3-methoxyphenyl)dimethylphosphine oxide] are 55 nM, 102 nM and 1440 nM.
On to `COc1cc(P(C)(C)=O)ccc1NCC#Cc1sc2c(N[C@H]3CCN(C)C[C@H]3F)cccc2c1[C@@H](O)C(F)(F)F` [Example 34, (4-((3-(7-(((3R,4S)-3-fluoro-1-methylpiperidin-4-yl)amino)-3-((R)-2,2,2-trifluoro-1-hydroxyethyl)benzo[b]thiophen-2-yl)prop-2-yn-1-yl)amino)-3-methoxyphenyl)dimethylphosphine oxide], for which the EC50 on p53(Y220C) is 20 nM; on p53(Y220C)_NUGC-3, 28 nM. In addition, in the assay on NUGC-3 (P53 Y220C), the IC50 was determined as 380 nM.
In the same order, the values of `COc1cc(S(C)(=O)=O)ccc1NCC#Cc1sc2c(N[C@@H]3CCN(C)C[C@@H]3F)cccc2c1CC(F)(F)F` [Example 36, (3S,4R)-3-fluoro-N-(2-(3-((2-methoxy-4-(methylsulfonyl)phenyl)amino)prop-1-yn-1-yl)-3-(2,2,2-trifluoroethyl)benzo[b]thiophen-7-yl)-1-methylpiperidin-4-amine] are 81 nM, 117 nM and 590 nM.
Take `COc1c(NCC#Cc2sc3c(N[C@@H]4CCN(C)C[C@@H]4F)cccc3c2CC(F)(F)F)ccc(P(C)(C)=O)c1C` [Example 41, (4-((3-(7-(((3S,4R)-3-fluoro-1-methylpiperidin-4-yl)amino)-3-(2,2,2-trifluoroethyl)benzo[b]thiophen-2-yl)prop-2-yn-1-yl)amino)-3-methoxy-2-methylphenyl)dimethylphosphine oxide]: the EC50 at p53(Y220C) stood at 56 nM; on p53(Y220C)_NUGC-3 it was 137 nM. The molecule also showed an IC50 in the assay on NUGC-3 (P53 Y220C) of 1230 nM.
With `COc1cc(S(C)(=O)=O)ccc1NCC#Cc1cc2c(N[C@@H]3CCN(C)C[C@@H]3F)cccc2n1CC(F)(F)F` [Ref-1a, reference compound], on p53(Y220C)_NUGC-3, the EC50 came out at 50 nM.

One may read the IC50 as the concentration that inhibits the measured activity by half.

(Values after patent US20260374794A1, “COMPOUNDS TARGETING MUTANT OF P53” (JACOBIO PHARMACEUTICALS CO., LTD., priority 2022, published 2026).)
